Data on 35 compounds can be found in ChEMBL document CHEMBL1122086, “Comparison of the inhibition of Escherichia coli and Lactobacillus casei dihydrofolate reductase by 2,4-diamino-5-(substituted-benzyl)pyrimidines: quantitative structure-activity relationships, X-ray crystallography, and computer graphics in structure-activity analysis” (J Med Chem, 1982).

In one experiment the target is Dihydrofolate reductase (Lactobacillus casei) (UniProt P00381). The following applies: Lacticaseibacillus casei.
Dihydrofolate reductase (Lactobacillus casei), sequence (P00381 whole entry): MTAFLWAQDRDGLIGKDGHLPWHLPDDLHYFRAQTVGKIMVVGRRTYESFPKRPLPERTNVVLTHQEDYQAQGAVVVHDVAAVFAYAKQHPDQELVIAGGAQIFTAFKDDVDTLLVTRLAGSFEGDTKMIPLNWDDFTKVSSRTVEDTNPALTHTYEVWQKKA
Description: Inhibitory activity against dihydrofolate reductase (DHFR) from Lactobacillus casei (expressed as log 1/Kiapp)
Take `Nc1ncc(Cc2cccc(C(F)(F)F)c2)c(N)n1`: the Log 1/Ki app is 6.16.
For `COCCOc1ccc(Cc2cnc(N)nc2N)cc1OCCOC`, the Log 1/Ki app is 6.51.
`CCCCOc1ccc(Cc2cnc(N)nc2N)cc1`: the Log 1/Ki app is 6.37.
The compound `NC(=O)COc1cccc(Cc2cnc(N)nc2N)c1` gave a Log 1/Ki app of 5.96.
The same measure, in the same setting: the figure for `Nc1ncc(Cc2cc(CO)cc(CO)c2)c(N)n1` is 5.73; for `Nc1ncc(Cc2ccc(O)c(O)c2)c(N)n1` it is 5.84.
For `COCCOc1c(OC)cc(Cc2cnc(N)nc2N)cc1OC`, the Log 1/Ki app stood at 6.26.
For the compound `CCCCCCOc1ccc(Cc2cnc(N)nc2N)cc1`, the Log 1/Ki app was determined as 5.73.
Consider `Nc1ncc(Cc2cccc(CO)c2)c(N)n1`, for which the Log 1/Ki app was found to be 5.67.
Same read-out and setting: the figure for `Nc1ncc(Cc2ccc(Br)cc2)c(N)n1` is 6.21.
`CCCCOCc1cccc(Cc2cnc(N)nc2N)c1` showed a Log 1/Ki app of 5.49.
On the same count and under the same terms, for `Nc1ncc(Cc2cc(O)cc(O)c2)c(N)n1` the value was 3.38; for `Nc1ncc(Cc2cccc(Cl)c2)c(N)n1`, 5.9; for `CC(=O)Nc1ccc(Cc2cnc(N)nc2N)cc1`, 6.05.
As to `Cc1cccc(Cc2cnc(N)nc2N)c1`, the Log 1/Ki app is 5.78.
On the same count and under the same terms, the figure for `COc1ccc(Cc2cnc(N)nc2N)cc1C(F)(F)F` is 7.3.
For `COCCOc1ccc(Cc2cnc(N)nc2N)cc1`, the Log 1/Ki app is 6.05.
Compound `CN(C)c1ccc(Cc2cnc(N)nc2N)cc1` came in with a Log 1/Ki app of 6.17.
As to `Nc1ncc(Cc2cccc(F)c2)c(N)n1`, the Log 1/Ki app turned out to be 5.38.
In turn, `Nc1ncc(Cc2ccc(Cl)cc2)c(N)n1` showed a Log 1/Ki app of 6.19.
Consider `Nc1ncc(Cc2ccccc2)c(N)n1`, for which the Log 1/Ki app came to 5.2.
Turning to `CS(=O)(=O)Oc1cccc(Cc2cnc(N)nc2N)c1`, the Log 1/Ki app is 5.92.
In turn, `COc1ccc(Cc2cnc(N)nc2N)cc1OC` returned a Log 1/Ki app of 6.92.
Regarding `Nc1ccc(Cc2cnc(N)nc2N)cc1`, the Log 1/Ki app was 5.47.
Compound `Cc1ccc(Cc2cnc(N)nc2N)cc1` returned a Log 1/Ki app of 5.83.
For the compound `Nc1ncc(Cc2ccc(F)cc2)c(N)n1`, the Log 1/Ki app was found to be 5.67.
For `Nc1ncc(Cc2ccc([N+](=O)[O-])cc2)c(N)n1`, the Log 1/Ki app worked out at 6.
Compound `Nc1ncc(Cc2ccc(OC(F)(F)F)cc2)c(N)n1` displayed a Log 1/Ki app of 6.3.
The compound `Nc1ncc(Cc2cccc(I)c2)c(N)n1` came in with a Log 1/Ki app of 6.67.
`Nc1ncc(Cc2cccc(Br)c2)c(N)n1` returned a Log 1/Ki app of 6.23.
With `Nc1ncc(Cc2cccc(O)c2)c(N)n1`, the Log 1/Ki app stood at 5.82.
Same read-out and setting: the figure for `COCc1cccc(Cc2cnc(N)nc2N)c1` is 5.64.
Turning to `CC(=O)Nc1ccc(Cc2cnc(N)nc2N)cc1[N+](=O)[O-]`, the Log 1/Ki app turned out to be 6.
In turn, `COCCOc1cccc(Cc2cnc(N)nc2N)c1` displayed a Log 1/Ki app of 6.12.
As for `CCCCCCCOc1ccc(Cc2cnc(N)nc2N)cc1`, the Log 1/Ki app was 5.36.

For another experiment, the target named is T1, Dihydrofolate reductase (Escherichia coli) (UniProt P0ABQ4).
T1 sequence (whole entry): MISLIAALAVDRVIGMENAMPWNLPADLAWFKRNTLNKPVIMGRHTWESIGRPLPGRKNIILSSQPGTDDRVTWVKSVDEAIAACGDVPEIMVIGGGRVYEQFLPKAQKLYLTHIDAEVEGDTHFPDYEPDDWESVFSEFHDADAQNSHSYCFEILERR
Conditions: not given
In the case of `COc1ccc(Cc2cnc(N)nc2N)cc1C(F)(F)F`, the Log 1/Ki app came out at 7.69.
Turning to `CS(=O)(=O)Oc1cccc(Cc2cnc(N)nc2N)c1`, the Log 1/Ki app came out at 6.92.
Compound `Nc1ncc(Cc2ccc([N+](=O)[O-])cc2)c(N)n1` came in with a Log 1/Ki app of 6.2.
On to `Nc1ncc(Cc2ccc(OC(F)(F)F)cc2)c(N)n1`, for which the Log 1/Ki app worked out at 6.57.
For the compound `CC(=O)Nc1ccc(Cc2cnc(N)nc2N)cc1[N+](=O)[O-]`, the Log 1/Ki app was 6.97.
